{"source": "patent EP0382636A1", "about": "“Pyrimidine derivatives, 2-[4-(alpha-heteroaryl-alpha-aryl-(alpha-alkyl)-methoxy)-butyl)-1-piperazinyl], with a serotoninergical activity” (LABORATORIOS DEL DR. ESTEVE, S.A., priority 1989, dated 1990)"}
{"molecular_target": "T1, récepteurs 5-HT 1A (Homo sapiens, UniProt P08908)", "T1 sequence (P08908 1-422)": "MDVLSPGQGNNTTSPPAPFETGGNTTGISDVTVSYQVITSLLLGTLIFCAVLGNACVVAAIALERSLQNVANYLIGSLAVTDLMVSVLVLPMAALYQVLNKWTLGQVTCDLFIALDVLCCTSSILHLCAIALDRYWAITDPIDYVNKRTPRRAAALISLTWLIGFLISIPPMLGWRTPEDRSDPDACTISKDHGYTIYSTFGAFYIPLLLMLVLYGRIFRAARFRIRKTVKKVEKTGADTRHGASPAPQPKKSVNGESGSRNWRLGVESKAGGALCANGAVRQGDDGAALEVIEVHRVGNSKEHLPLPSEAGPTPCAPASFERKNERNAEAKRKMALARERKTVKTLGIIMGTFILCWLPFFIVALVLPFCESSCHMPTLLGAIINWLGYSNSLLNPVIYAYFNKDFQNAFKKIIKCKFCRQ", "assay": "5-HT 1A receptor binding (radioligand displacement)", "conditions": "specific binding to 5-HT 1A receptors; test concentration not given; method cited from M. Hapon, Brain Receptor Methodologies", "from_the_text": "L'activité de certains composés sur le système nerveux central a été étudiée et plus précisément leur activité sérotoninergique, par leur union spécifique aux récepteurs 5-HT 1A. TABLEAU II"}
{"smiles": "O=C1c2ccccc2S(=O)(=O)N1CCCCN1CCN(c2ncccn2)CC1", "note": "[Ipsapirone, reference compound]", "Binding 5-HT-1A déplacement (%)": "99,6%"}
{"smiles": "O=C1CC2(CCCC2)CC(=O)N1CCCCN1CCN(c2ncccn2)CC1", "note": "[Buspirone, reference compound]", "Binding 5-HT-1A déplacement (%)": "99,1%"}
{"smiles": "Cn1nccc1C(C)(OCCCCN1CCN(c2ncccn2)CC1)c1ccc(Cl)cc1", "note": "(centres unmarked) [Exemple 9]", "Binding 5-HT-1A déplacement (%)": "95,0%"}
{"smiles": "Cn1ccnc1C(C)(OCCCCN1CCN(c2ncccn2)CC1)c1ccc(Cl)cc1", "note": "(centres unmarked) [Exemple 2]", "Binding 5-HT-1A déplacement (%)": "98,6%"}
{"smiles": "CCCCn1ccnc1C(OCCCCN1CCN(c2ncccn2)CC1)c1cccc(C(F)(F)F)c1", "note": "(centres unmarked) [Exemple 6]", "Binding 5-HT-1A déplacement (%)": "94,6%"}
{"smiles": "Cn1ccnc1C(OCCCCN1CCN(c2ncccn2)CC1)c1cccc(C(F)(F)F)c1", "note": "(centres unmarked) [Exemple 7]", "Binding 5-HT-1A déplacement (%)": "98,3%"}
{"smiles": "Cn1nccc1C(OCCCCN1CCN(c2ncccn2)CC1)c1ccc(Cl)cc1", "note": "(centres unmarked) [Exemple 8]", "Binding 5-HT-1A déplacement (%)": "95,0%"}
{"smiles": "Cn1ccnc1C(OCCCCN1CCN(c2ncccn2)CC1)c1ccc(Cl)cc1", "note": "(centres unmarked) [Exemple 1]", "Binding 5-HT-1A déplacement (%)": "94,7%"}
{"smiles": "CCCCn1ccnc1C(C)(OCCCCN1CCN(c2ncccn2)CC1)c1cccc(C(F)(F)F)c1", "note": "(centres unmarked) [Exemple 3]", "Binding 5-HT-1A déplacement (%)": "97,6%"}
{"smiles": "CCCCn1ccnc1C(OCCCCN1CCN(c2ncccn2)CC1)c1ccc(Cl)cc1", "note": "(centres unmarked) [Exemple 5]", "Binding 5-HT-1A déplacement (%)": "91,5%"}
{"smiles": "Cn1ccnc1C(C)(OCCCCN1CCN(c2ncccn2)CC1)c1cccc(C(F)(F)F)c1", "note": "(centres unmarked) [Exemple 4]", "Binding 5-HT-1A déplacement (%)": "98,1%"}
